# Data from ChEMBL document CHEMBL4480380, “Identification and biological evaluation of novel benzothiazole derivatives bearing a pyridine-semicarbazone moiety as apoptosis inducers via activation of procaspase-3 to caspase-3” (Medchemcomm, 2019).
# Calls of active or inactive are those of the source. No cut-off for these calls is given here.
# Tests used:
# [1] = system: U-937; assay: Induction of apoptosis in human U937 cells assessed as early apoptotic cells at 6.6 uM after 48 hrs by Annexin V-FITC/propidium iodide staining-based flow cytometric analysis (reference value: 6.16%); type: functional
# [2] = Toxicity in zebrafish AB embryos at 5 to 20 uM measured at 24 to 72 hrs post fertilization by stereo microscopic analysis; design: species or system Danio rerio; conditions: in vivo
# [3] = Toxicity in zebrafish AB embryos at 40 uM after 48 hrs post fertilization by stereo microscopic analysis; design: species or system Danio rerio; conditions: in vivo
# [4] = system: U-937; assay: Induction of apoptosis in human U937 cells assessed as caspase-3 activity at 30 uM using Ac-DEVD-AFC as substrate preincubated for 16 hrs followed by substrate addition and measured after 60 mins by fluorescence assay (reference value: 7+/- 1%); type: functional
# [5] = Half life in human liver microsomes in presence of NADPH by LC-MS analysis; type: ADME, Microsome
# [6] = Half life in mouse liver microsomes in presence of NADPH by LC-MS analysis; type: ADME, Microsome
# [7] = system: MCF7; assay: Antiproliferative activity against human MCF7 cells after 24 hrs by CCK-8 assay; type: functional, cell-based; conditions: MCF7, 24 h
# [8] = system: U-937; assay: Induction of apoptosis in human U937 cells assessed as early apoptotic cells at 3.3 uM after 48 hrs by Annexin V-FITC/propidium iodide staining-based flow cytometric analysis (reference value: 6.16%); type: functional
# [9] = Intrinsic clearance in mouse liver microsomes in presence of NADPH by LC-MS analysis; type: ADME, Microsome; conditions: read-out: CLH
# [10] = Half life in rat liver microsomes in presence of NADPH by LC-MS analysis; type: ADME, Microsome
# [11] = system: U-937; assay: Antiproliferative activity against human procaspase-3 over-expressing U937 cells after 24 hrs by CCK-8 assay; type: functional, cell-based; conditions: U-937, 24 h
# [12] = system: U-937; assay: Induction of apoptosis in human U937 cells assessed as late apoptotic cells at 3.3 uM after 24 hrs by Annexin V-FITC/propidium iodide staining-based flow cytometric analysis (reference value: 3.27%); type: functional
# [13] = system: U-937; assay: Induction of apoptosis in human U937 cells assessed as early apoptotic cells at 6.6 uM after 24 hrs by Annexin V-FITC/propidium iodide staining-based flow cytometric analysis (reference value: 4.88%); type: functional
# [14] = organism: Danio rerio; assay: Induction of apoptosis in zebrafish AB embryos assessed as accumulation of dying cells in head at 40 to 60 uM after 24 hrs post fertilization by acridine orange staining-based fluorescence microscopic analysis; type: functional, organism-based
# [15] = system: U-937; assay: Induction of apoptosis in human U937 cells assessed as late apoptotic cells at 6.6 uM after 24 hrs by Annexin V-FITC/propidium iodide staining-based flow cytometric analysis (reference value: 3.27%); type: functional
# [16] = system: U-937; assay: Induction of apoptosis in human U937 cells assessed as early apoptotic cells at 3.3 uM after 24 hrs by Annexin V-FITC/propidium iodide staining-based flow cytometric analysis (reference value: 4.88%); type: functional
# [17] = system: U-937; assay: Induction of apoptosis in human U937 cells assessed as late apoptotic cells at 6.6 uM after 48 hrs by Annexin V-FITC/propidium iodide staining-based flow cytometric analysis (reference value: 3.89%); type: functional
# [18] = Toxicity in zebrafish AB embryos assessed as induction of mortality at 40 uM after 72 hrs post fertilization by stereo microscopic analysis; design: species or system Danio rerio; conditions: in vivo
# [19] = system: U-937; assay: Induction of apoptosis in human U937 cells assessed as late apoptotic cells at 3.3 uM after 48 hrs by Annexin V-FITC/propidium iodide staining-based flow cytometric analysis (reference value: 3.89%); type: functional
# [20] = Selectivity ratio of IC50 for human MCF7 cells to IC50 for human procaspase-3 over-expressing U937 cells; type: functional
# [21] = Intrinsic clearance in human liver microsomes in presence of NADPH by LC-MS analysis; type: ADME, Microsome; conditions: read-out: CLH
# [22] = organism: Danio rerio; assay: Induction of apoptosis in zebrafish AB embryos assessed as accumulation of dying cells in cranial neural crest at 40 to 60 uM after 24 hrs post fertilization by acridine orange staining-based fluorescence microscopic analysis; type: functional, organism-based
# [23] = molecular target: T1, Caspase-3 (Homo sapiens) (UniProt P42574); assay: Activation of procaspase-3 (unknown origin) at 10 uM using Ac-DEVD-AFC as substrate preincubated for 4 hrs followed by substrate addition and measured after 5 mins by fluorescence assay relative to control
# T1 sequence (whole entry): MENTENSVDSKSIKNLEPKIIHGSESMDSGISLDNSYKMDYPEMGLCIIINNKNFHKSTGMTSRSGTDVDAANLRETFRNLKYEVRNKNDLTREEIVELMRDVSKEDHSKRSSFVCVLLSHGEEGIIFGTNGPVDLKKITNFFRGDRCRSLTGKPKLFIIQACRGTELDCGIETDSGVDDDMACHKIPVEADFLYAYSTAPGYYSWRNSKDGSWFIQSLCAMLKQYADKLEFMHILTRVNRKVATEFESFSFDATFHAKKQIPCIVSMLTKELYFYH
# [24] = Intrinsic clearance in rat liver microsomes in presence of NADPH by LC-MS analysis; type: ADME, Microsome; conditions: read-out: CLH
# [25] = organism: Danio rerio; assay: Induction of apoptosis in zebrafish AB embryos assessed as increase in bax mRNA expression at 40 to 60 uM after 24 hrs post fertilization by RT-PCR analysis; type: functional, organism-based
smiles,measurement,setting,value
CC1CCN(Cc2ccc3nc(NC(=O)NN=C(c4ccccn4)c4ccccn4)sc3c2)CC1,Activity,[1],26.89%
same,Activity,[2],Non-Toxic
same,Activity,[3],Toxic
same,Activity,[4],114%
same,half-life,[5],79.1 min
same,half-life,[6],16.7 min
same,IC50,[7],> 40 µM
same,Activity,[8],20.55%
same,CLint scaled,[9],326 mL/min/kg
same,half-life,[10],73.9 min
same,IC50,[11],6.6 µM
same,Activity,[12],6.75%
same,Activity,[13],19.27%
same,Activity,[14],Active
same,Activity,[15],8.5%
same,Activity,[16],15.85%
same,Activity,[17],17.66%
same,Activity,[18],Toxic
same,Activity,[19],9.86%
same,Ratio IC50,[20],6
same,CLint scaled,[21],22 mL/min/kg
same,Activity,[22],Active
same,Activity,[23],92.1%
same,CLint scaled,[24],33.6 mL/min/kg
same,Activity,[25],Active
